#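 Growth conditions: 96-well plates. Treatment: test compound, 48 hours, 5 concentrations. Analysis: linear interpolation between bracketing concentrations; unreached endpoints set to highest concentration. The concentration for 50% growth inhibition is given as GI50. The concentration for full growth arrest is given as TGI.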
# Columns and labels:
# Assay in all cases: growth of human tumour cells (NCI), 48 h
# [1] = tested on: ACHN renal
# [2] = tested on: COLO 205 colon
# [3] = tested on: EKVX NSCLC
# [4] = tested on: HCC-2998 colon
# [5] = tested on: HL-60(TB) leukemia
# [6] = tested on: MCF7 breast
# [7] = tested on: OVCAR-4 ovarian
# [8] = tested on: OVCAR-8 ovarian
# [9] = tested on: SF-268 CNS
# [10] = tested on: SR leukemia
SMILES,GI50 [1] [µM],TGI [1] [µM],GI50 [2] [µM],TGI [2] [µM],GI50 [3] [µM],TGI [3] [µM],GI50 [4] [µM],TGI [4] [µM],GI50 [5] [µM],TGI [5] [µM],GI50 [6] [µM],TGI [6] [µM],GI50 [7] [µM],TGI [7] [µM],GI50 [8] [µM],TGI [8] [µM],GI50 [9] [µM],TGI [9] [µM],GI50 [10] [µM],TGI [10] [µM]
CS(=O)(=O)Nc1cccc(-c2ccc3c(NC(=O)C4CC4)n[nH]c3c2)c1,12.7,> 25,1.81,> 12.9,> 24.1,> 25,4.08,> 25,1.73,10.8,0.794,> 9.93,2.68,> 25,6.26,> 25,2.78,> 25,0.355,> 25
O=C1CSC(=S)N1Cc1cccnc1,6.14,19.5,5.59,21.1,,,19.8,36.9,7.27,49,2.43,12.8,7.78,25.4,11.3,38,5.75,23.3,3.56,> 100
COC(=O)c1cc2c3ccccc3n3c(=O)c4cc5cc(OC)c(N(S(=O)(=O)c6ccc(C)cc6)S(=O)(=O)c6ccc(C)cc6)cc5nc4c(n1)c23,6.03,22.2,> 100,> 100,39.2,> 100,> 100,> 100,74.7,> 100,> 100,> 100,> 100,> 100,67.9,> 100,7.78,> 100,41.4,> 100
O=c1[nH]ccc2nc(-c3ccc(CN4CCC(c5nc(-c6ccccn6)n[nH]5)CC4)cc3)c(-c3ccccc3)cc12,21.2,> 100,1.54,> 100,15.8,> 100,22.2,> 100,23.6,> 86.7,0.282,33.2,> 80.7,> 100,20,> 100,25.9,> 100,2.34,66
CCCCCCCCCCCCCCCCOC(=O)c1c(C)[nH]c(/C=C2\N=C(c3ccc[nH]3)C=C2OC)c1C,1.65,14.9,3.81,> 100,,,0.244,14.9,0.151,> 100,0.0686,> 100,2.71,53.6,0.384,15,1.99,19.6,1.54,> 100
O=C1/C(=C/c2ccc([N+](=O)[O-])o2)Oc2ccccc21,0.895,2.17,1.35,2.91,,,1.98,3.94,1.33,3.89,0.827,3.11,1.61,3.65,1.35,3.82,2.19,5.86,0.219,1.13
